Source: ChEMBL document CHEMBL1921755, “The synthesis of xanthones, xanthenediones, and spirobenzofurans: their antibacterial and antifungal activity” (2011)
In brackets after ≈: the same amount, converted by molar mass.

Test system: Bacillus cereus
Test: Antibacterial activity against Bacillus cereus ATCC 11778
Assay type: functional

SMILES | MIC [µg/mL]
COc1ccc2oc3ccccc3c(=O)c2c1 | 312 (≈ 1380 µM)
COC12C=CC(=O)C=C1C(=O)c1ccccc1O2 (centres undefined) | 31.3 (≈ 129 µM)
COc1c(O)ccc2oc3ccccc3c(=O)c12 | 31.3 (≈ 129 µM)
COC1=CC2(OC)Oc3ccc(Br)cc3C(=O)C2=CC1=O (centres undefined) | 31.3 (≈ 89.1 µM)
COC1=CC2(Oc3ccc(-c4ccccc4)cc3C2=O)C(OC)=CC1=O (centres undefined) | 46.9 (≈ 135 µM)
COc1cc2oc3ccc(Cl)cc3c(=O)c2cc1OC | 312 (≈ 1070 µM)
COc1ccc2oc3ccc(Cl)cc3c(=O)c2c1 | 625 (≈ 2400 µM)
COC12C=CC(=O)C=C1C(=O)c1cc(Cl)ccc1O2 (centres undefined) | 156 (≈ 565 µM)
O=C(O)c1cn(C2CC2)c2cc(N3CCNCC3)c(F)cc2c1=O [CIPROFLOXACIN] | 0.08 (≈ 0.241 µM)

Further lines, results first:

MIC [µg/mL] | SMILES
46.9 (≈ 183 µM) | COc1cc2oc3ccccc3c(=O)c2cc1OC
31.3 (≈ 97.5 µM) | COC12C=CC(=O)C=C1C(=O)c1cc(Br)ccc1O2 (centres undefined)
31.3 (≈ 108 µM) | O=c1c2cc(O)ccc2oc2ccc(Br)cc12
31.3 (≈ 89.1 µM) | COC1=CC2(Oc3ccc(Br)cc3C2=O)C(OC)=CC1=O (centres undefined)
31.3 (≈ 97.5 µM) | COc1cc2oc3ccc(Br)cc3c(=O)c2cc1O
15.6 (≈ 41.4 µM) | COC1=CC2(Oc3ccc(-c4ccccc4C=O)cc3C2=O)C(OC)=CC1=O (centres undefined)
19.5 (≈ 66.7 µM) | COC12Oc3ccccc3C(=O)C1=CC(=O)c1ccccc12 (centres undefined)
78.1 (≈ 239 µM) | COC12Oc3ccc(Cl)cc3C(=O)C1=CC(=O)c1ccccc12 (centres undefined)
156 (≈ 509 µM) | COC1=CC2(Oc3ccc(Cl)cc3C2=O)C(OC)=CC1=O (centres undefined)
39 (≈ 127 µM) | COC1=CC2(OC)Oc3ccc(Cl)cc3C(=O)C2=CC1=O (centres undefined)

Test system: Candida albicans
Test: Antifungal activity against Candida albicans
Assay type: functional

MIC [µg/mL] | SMILES
20 (≈ 56.7 µM) | COC1=CC(=O)C[C@@H](C)[C@]12Oc1c(Cl)c(OC)cc(OC)c1C2=O [GRISEOFULVIN]

Test system: Bacillus subtilis
Test: Antibacterial activity against Bacillus subtilis
Assay type: functional

MIC [µM] | SMILES
4.6 (≈ 1.43 µg/mL) | CC1(C)C=Cc2c(cc3oc4c(O)cccc4c(=O)c3c2O)O1

Test system: Cryptococcus neoformans
Test: Antifungal activity against Cryptococcus neoformans ATCC 90112
Assay type: functional

SMILES | MIC [µg/mL]
COc1ccc2oc3ccccc3c(=O)c2c1 | 78.1 (≈ 345 µM)
COC12C=CC(=O)C=C1C(=O)c1ccccc1O2 (centres undefined) | 3.6 (≈ 14.9 µM)
COc1c(O)ccc2oc3ccccc3c(=O)c12 | 15.6 (≈ 64.4 µM)
COC1=CC2(OC)Oc3ccc(Br)cc3C(=O)C2=CC1=O (centres undefined) | 15.6 (≈ 44.4 µM)
COC1=CC2(Oc3ccc(-c4ccccc4)cc3C2=O)C(OC)=CC1=O (centres undefined) | 23.4 (≈ 67.2 µM)
COc1cc2oc3ccc(Cl)cc3c(=O)c2cc1OC | 78.1 (≈ 269 µM)
COc1ccc2oc3ccc(Cl)cc3c(=O)c2c1 | 156 (≈ 599 µM)
COC12C=CC(=O)C=C1C(=O)c1cc(Cl)ccc1O2 (centres undefined) | 7.8 (≈ 28.2 µM)

Second part, the compound after the results:

MIC [µg/mL] | SMILES
31.3 (≈ 122 µM) | COc1cc2oc3ccccc3c(=O)c2cc1OC
15.6 (≈ 48.6 µM) | COC12C=CC(=O)C=C1C(=O)c1cc(Br)ccc1O2 (centres undefined)
11.7 (≈ 40.2 µM) | O=c1c2cc(O)ccc2oc2ccc(Br)cc12
15.6 (≈ 44.4 µM) | COC1=CC2(Oc3ccc(Br)cc3C2=O)C(OC)=CC1=O (centres undefined)
15.6 (≈ 48.6 µM) | COc1cc2oc3ccc(Br)cc3c(=O)c2cc1O
15.6 (≈ 41.4 µM) | COC1=CC2(Oc3ccc(-c4ccccc4C=O)cc3C2=O)C(OC)=CC1=O (centres undefined)
19.5 (≈ 66.7 µM) | COC12Oc3ccccc3C(=O)C1=CC(=O)c1ccccc12 (centres undefined)
29.2 (≈ 89.4 µM) | COC12Oc3ccc(Cl)cc3C(=O)C1=CC(=O)c1ccccc12 (centres undefined)
39 (≈ 127 µM) | COC1=CC2(Oc3ccc(Cl)cc3C2=O)C(OC)=CC1=O (centres undefined)
15.6 (≈ 50.9 µM) | COC1=CC2(OC)Oc3ccc(Cl)cc3C(=O)C2=CC1=O (centres undefined)

Test system: Candida albicans
Test: Antifungal activity against Candida albicans ATCC 10231
Assay type: functional

SMILES | MIC [µg/mL]
COc1ccc2oc3ccccc3c(=O)c2c1 | 156 (≈ 690 µM)
COC12C=CC(=O)C=C1C(=O)c1ccccc1O2 (centres undefined) | 3.6 (≈ 14.9 µM)
COc1c(O)ccc2oc3ccccc3c(=O)c12 | 31.3 (≈ 129 µM)
COC1=CC2(OC)Oc3ccc(Br)cc3C(=O)C2=CC1=O (centres undefined) | 31.3 (≈ 89.1 µM)
COC1=CC2(Oc3ccc(-c4ccccc4)cc3C2=O)C(OC)=CC1=O (centres undefined) | 31.3 (≈ 89.9 µM)
COc1cc2oc3ccc(Cl)cc3c(=O)c2cc1OC | 156 (≈ 537 µM)
COc1ccc2oc3ccc(Cl)cc3c(=O)c2c1 | 234 (≈ 899 µM)
COC12C=CC(=O)C=C1C(=O)c1cc(Cl)ccc1O2 (centres undefined) | 156 (≈ 565 µM)

Results, then the compound that gave them:

MIC [µg/mL] | SMILES
31.3 (≈ 122 µM) | COc1cc2oc3ccccc3c(=O)c2cc1OC
7.8 (≈ 24.3 µM) | COC12C=CC(=O)C=C1C(=O)c1cc(Br)ccc1O2 (centres undefined)
31.3 (≈ 108 µM) | O=c1c2cc(O)ccc2oc2ccc(Br)cc12
31.3 (≈ 89.1 µM) | COC1=CC2(Oc3ccc(Br)cc3C2=O)C(OC)=CC1=O (centres undefined)
31.3 (≈ 97.5 µM) | COc1cc2oc3ccc(Br)cc3c(=O)c2cc1O
31.3 (≈ 83.2 µM) | COC1=CC2(Oc3ccc(-c4ccccc4C=O)cc3C2=O)C(OC)=CC1=O (centres undefined)
78.1 (≈ 267 µM) | COC12Oc3ccccc3C(=O)C1=CC(=O)c1ccccc12 (centres undefined)
469 (≈ 1430 µM) | COC12Oc3ccc(Cl)cc3C(=O)C1=CC(=O)c1ccccc12 (centres undefined)
156 (≈ 509 µM) | COC1=CC2(Oc3ccc(Cl)cc3C2=O)C(OC)=CC1=O (centres undefined)
20.8 (≈ 67.8 µM) | COC1=CC2(OC)Oc3ccc(Cl)cc3C(=O)C2=CC1=O (centres undefined)

Test system: Nakaseomyces glabratus
Test: Antifungal activity against Candida glabrata
Assay type: functional

MIC [µM] | SMILES
2.44 (≈ 0.884 µg/mL) | CC(C)=CCc1cccc2c(=O)c3c(O)cc4c(c3oc12)C=CC(C)(C)O4 [LAURENTIXANTHONE A]

Test system: Staphylococcus aureus
Test: Antibacterial activity against Staphylococcus aureus ATCC 2587
Assay type: functional

SMILES | MIC [µg/mL]
COc1ccc2oc3ccccc3c(=O)c2c1 | 156 (≈ 690 µM)
COC12C=CC(=O)C=C1C(=O)c1ccccc1O2 (centres undefined) | 93.7 (≈ 387 µM)
COc1c(O)ccc2oc3ccccc3c(=O)c12 | 125 (≈ 516 µM)
COC1=CC2(OC)Oc3ccc(Br)cc3C(=O)C2=CC1=O (centres undefined) | 62.5 (≈ 178 µM)
COC1=CC2(Oc3ccc(-c4ccccc4)cc3C2=O)C(OC)=CC1=O (centres undefined) | 62.5 (≈ 179 µM)
COc1cc2oc3ccc(Cl)cc3c(=O)c2cc1OC | 117 (≈ 403 µM)
COc1ccc2oc3ccc(Cl)cc3c(=O)c2c1 | 234 (≈ 899 µM)
COC12C=CC(=O)C=C1C(=O)c1cc(Cl)ccc1O2 (centres undefined) | 156 (≈ 565 µM)
O=C(O)c1cn(C2CC2)c2cc(N3CCNCC3)c(F)cc2c1=O [CIPROFLOXACIN] | 1.25 (≈ 3.77 µM)

The next lines start with the values.

MIC [µg/mL] | SMILES
62.5 (≈ 244 µM) | COc1cc2oc3ccccc3c(=O)c2cc1OC
62.5 (≈ 195 µM) | COC12C=CC(=O)C=C1C(=O)c1cc(Br)ccc1O2 (centres undefined)
250 (≈ 859 µM) | O=c1c2cc(O)ccc2oc2ccc(Br)cc12
62.5 (≈ 178 µM) | COC1=CC2(Oc3ccc(Br)cc3C2=O)C(OC)=CC1=O (centres undefined)
62.5 (≈ 195 µM) | COc1cc2oc3ccc(Br)cc3c(=O)c2cc1O
15.6 (≈ 41.4 µM) | COC1=CC2(Oc3ccc(-c4ccccc4C=O)cc3C2=O)C(OC)=CC1=O (centres undefined)
78.1 (≈ 267 µM) | COC12Oc3ccccc3C(=O)C1=CC(=O)c1ccccc12 (centres undefined)
19.5 (≈ 59.7 µM) | COC12Oc3ccc(Cl)cc3C(=O)C1=CC(=O)c1ccccc12 (centres undefined)
156 (≈ 509 µM) | COC1=CC2(Oc3ccc(Cl)cc3C2=O)C(OC)=CC1=O (centres undefined)
39 (≈ 127 µM) | COC1=CC2(OC)Oc3ccc(Cl)cc3C(=O)C2=CC1=O (centres undefined)

Test system: Moraxella catarrhalis
Test: Antibacterial activity against Moraxella catarrhalis […]
Assay type: functional

SMILES | MIC [µg/mL]
COc1ccc2oc3ccccc3c(=O)c2c1 | 625 (≈ 2760 µM)
COC12C=CC(=O)C=C1C(=O)c1ccccc1O2 (centres undefined) | 125 (≈ 516 µM)
COc1c(O)ccc2oc3ccccc3c(=O)c12 | 125 (≈ 516 µM)
COC1=CC2(OC)Oc3ccc(Br)cc3C(=O)C2=CC1=O (centres undefined) | 125 (≈ 356 µM)
COC1=CC2(Oc3ccc(-c4ccccc4)cc3C2=O)C(OC)=CC1=O (centres undefined) | > 250
COc1cc2oc3ccc(Cl)cc3c(=O)c2cc1OC | 625 (≈ 2150 µM)
COc1ccc2oc3ccc(Cl)cc3c(=O)c2c1 | 1250 (≈ 4800 µM)
COC12C=CC(=O)C=C1C(=O)c1cc(Cl)ccc1O2 (centres undefined) | 156 (≈ 565 µM)
O=C(O)c1cn(C2CC2)c2cc(N3CCNCC3)c(F)cc2c1=O [CIPROFLOXACIN] | 1.25 (≈ 3.77 µM)

Results, then the compound that gave them:

MIC [µg/mL] | SMILES
125 (≈ 488 µM) | COc1cc2oc3ccccc3c(=O)c2cc1OC
125 (≈ 389 µM) | COC12C=CC(=O)C=C1C(=O)c1cc(Br)ccc1O2 (centres undefined)
> 250 | O=c1c2cc(O)ccc2oc2ccc(Br)cc12
125 (≈ 356 µM) | COC1=CC2(Oc3ccc(Br)cc3C2=O)C(OC)=CC1=O (centres undefined)
125 (≈ 389 µM) | COc1cc2oc3ccc(Br)cc3c(=O)c2cc1O
125 (≈ 332 µM) | COC1=CC2(Oc3ccc(-c4ccccc4C=O)cc3C2=O)C(OC)=CC1=O (centres undefined)
78.1 (≈ 267 µM) | COC12Oc3ccccc3C(=O)C1=CC(=O)c1ccccc12 (centres undefined)
312 (≈ 956 µM) | COC12Oc3ccc(Cl)cc3C(=O)C1=CC(=O)c1ccccc12 (centres undefined)
312 (≈ 1020 µM) | COC1=CC2(Oc3ccc(Cl)cc3C2=O)C(OC)=CC1=O (centres undefined)
156 (≈ 509 µM) | COC1=CC2(OC)Oc3ccc(Cl)cc3C(=O)C2=CC1=O (centres undefined)

Test system: Escherichia coli
Test: Antibacterial activity against Escherichia coli ATCC 8739
Assay type: functional

SMILES | MIC [µg/mL]
COc1ccc2oc3ccccc3c(=O)c2c1 | 312 (≈ 1380 µM)
COC12C=CC(=O)C=C1C(=O)c1ccccc1O2 (centres undefined) | 125 (≈ 516 µM)
COc1c(O)ccc2oc3ccccc3c(=O)c12 | 125 (≈ 516 µM)
COC1=CC2(OC)Oc3ccc(Br)cc3C(=O)C2=CC1=O (centres undefined) | 188 (≈ 534 µM)
COC1=CC2(Oc3ccc(-c4ccccc4)cc3C2=O)C(OC)=CC1=O (centres undefined) | 125 (≈ 359 µM)
COc1cc2oc3ccc(Cl)cc3c(=O)c2cc1OC | 312 (≈ 1070 µM)
COc1ccc2oc3ccc(Cl)cc3c(=O)c2c1 | 625 (≈ 2400 µM)
COC12C=CC(=O)C=C1C(=O)c1cc(Cl)ccc1O2 (centres undefined) | 312 (≈ 1130 µM)

More lines, now with the values ahead:

MIC [µg/mL] | SMILES
125 (≈ 488 µM) | COc1cc2oc3ccccc3c(=O)c2cc1OC
62.5 (≈ 195 µM) | COC12C=CC(=O)C=C1C(=O)c1cc(Br)ccc1O2 (centres undefined)
125 (≈ 429 µM) | O=c1c2cc(O)ccc2oc2ccc(Br)cc12
62.5 (≈ 178 µM) | COC1=CC2(Oc3ccc(Br)cc3C2=O)C(OC)=CC1=O (centres undefined)
125 (≈ 389 µM) | COc1cc2oc3ccc(Br)cc3c(=O)c2cc1O
62.5 (≈ 166 µM) | COC1=CC2(Oc3ccc(-c4ccccc4C=O)cc3C2=O)C(OC)=CC1=O (centres undefined)
156 (≈ 534 µM) | COC12Oc3ccccc3C(=O)C1=CC(=O)c1ccccc12 (centres undefined)
469 (≈ 1430 µM) | COC12Oc3ccc(Cl)cc3C(=O)C1=CC(=O)c1ccccc12 (centres undefined)
312 (≈ 1020 µM) | COC1=CC2(Oc3ccc(Cl)cc3C2=O)C(OC)=CC1=O (centres undefined)
156 (≈ 509 µM) | COC1=CC2(OC)Oc3ccc(Cl)cc3C(=O)C2=CC1=O (centres undefined)
